Reference: patent US20150182586A1, “DAIRY FARM TEAT DIP COMPOSITIONS AND METHODS” (Advanced BioCatalytics Corporation, priority 2013, published 2015)

System: mastitis
Test: Teat dip field test, Dairy 3 (spray, raw milk dairy, 6 week test period)
Format: in vivo
Details: Dairy 3, pre and post milking; chlorine dioxide on cows without previous mastitis (Pens 0, 1, 3, 5), Example 1 on cows with previous mastitis (Pen 7)
Text: Dairy 3 produces raw milk and uses a spray method for applying teat dips. A key factor to note is that Example 1 was used on cows that previously had mastitis. The results of Table 5 compare using chlorine dioxide on cows that had not had mastitis, to using Example 1 on cows that were more susceptible due to previous bouts with mastitis. Once a cow developed mastitis in Dairy 3, it is not used in the production of raw milk. […] Pen No's. 0, 1, 3 and 5 used chlorine dioxide for both pre and post milking. Pen No. 7 used Example 1 for the 6 week test period. In all pens, the cows were retained in pens with saw dust in between milking cycles to reduce the chance of spreading infectious disease.
The number of cows that were […] using the composition of Example 1, for both pre and post milking, during the 6 week test period was 5.3% as shown in Table 5. Table 6 defines the number of cows in each respective pen of Table 5.

SMILES: [O][Cl+][O-] [chlorine dioxide]
- cows that developed mastitis during the 6 week test period: 5.7%
